Values after ≈ are worked out from the molar mass of the structure shown. Where a SMILES comes first, the peptide text is derived from it.
Tests used:
[1] = tested on: MDRST 8007; experiment: Minimal inhibitory concentration (MIC), single agent; type: cell-based, Salmonella typhimurium; conditions: agent alone
Method in brief: (§1)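 Broth microdilution in MH medium: strains diluted to 2×10^6 CFU were mixed with equal volumes of twofold serial peptide dilutions in MH medium. MIC was taken as the lowest peptide concentration preventing bacterial growth.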

[2] = tested on: MRSA 3126; type: cell-based, Staphylococcus aureus; conditions: 3126
Method in brief: as §1

[3] = tested on: MRSA 3114; type: cell-based, Staphylococcus aureus; conditions: 3114
Method in brief: as §1

[4] = tested on: MDREC 1229; experiment: MIC of antibiotic during combined treatment with antimicrobial peptide; type: cell-based, Escherichia coli
Method in brief: (§2)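 Strains in MH medium at 2×10^6 CFU/ml were mixed with peptide diluted stepwise (2:1) from its MIC, then antibiotic dilutions in MH medium were added to give the antibiotic MIC. The reversed set-up, peptide titrated against fixed antibiotic, gave the peptide MIC.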

[5] = tested on: gram-negative bacteria; experiment: MIC, summary statements for gram-negative bacteria; type: cell-based; conditions: gram-negative bacteria
Experimental: For the antibacterial activity, a minimal inhibitory concentration (MIC) of a peptide in which fungus bodies were not split in an MH medium with sufficient nutrients was measured.
Specifically, the strains described in the following [Table 2] were purchased and diluted with an MH medium such that the number of bacteria was 2×10^6 colony-forming units (CFUs), 100 μl of each of the diluted strains was aliquoted into a 96-well microtiter plate, and then 100 μl of a peptide solution diluted with the MH medium (solution diluted stepwise at 2: 1) was added to each well.

[6] = tested on: MDRPA 2002; type: cell-based, Pseudomonas aeruginosa
Method in brief: as §1

[7] = tested on: MDRPA 2003; type: cell-based, Pseudomonas aeruginosa
Method in brief: as §1

[8] = tested on: S. typhimurium; experiment: microbe, parasite or virus in culture; type: cell-based, Salmonella typhimurium
Method in brief: as §1

[9] = tested on: MDRAB 12036; type: cell-based, Acinetobacter baumannii
Method in brief: as §1

[10] = tested on: MDREC 1238; type: cell-based, Escherichia coli
Method in brief: as §1

[11] = tested on: MDRAB 12035; experiment: MIC of antibiotic during combined treatment with antimicrobial peptide; type: cell-based, Acinetobacter baumannii
Method in brief: as §2

[12] = peptide treatment concentration 1 μg/ml
[13] = peptide treatment concentration 2 μg/ml
[14] = peptide treatment concentration 4 μg/ml
[15] = peptide treatment concentration 6 μg/ml
[16] = peptide treatment concentration 8 μg/ml
[17] = peptide treatment concentration 16 μg/ml
[18] = peptide treatment concentration 32 μg/ml
[19] = peptide treatment concentration 64 μg/ml

Structure (SMILES): CC[C@H](C)[C@H](NC(=O)[C@H](CCCCN)NC(=O)[C@H](Cc1c[nH]c2ccccc12)NC(=O)[C@@H](N)CCCNC(=N)N)C(=O)N[C@@H](Cc1ccccc1)C(=O)N[C@@H](CCCCN)C(=O)N[C@@H](CCCCN)C(=O)N[C@H](C(=O)N1CCC[C@H]1C(=O)N[C@@H](CCCCN)C(=O)N[C@@H](Cc1ccccc1)C(=O)N[C@@H](CC(C)C)C(=O)N[C@@H](Cc1c[nH]cn1)C(=O)N[C@@H](CO)C(=O)N[C@@H](C)C(=O)N[C@@H](CCCCN)C(=O)N[C@@H](CCCCN)C(=O)N[C@@H](Cc1c[nH]c2ccccc12)C(N)=O)[C@@H](C)CC [PapMA-2, RWK IFK KIP KFL HSA KKW-NH2] (H-RWKIFKKIPKFLHSAKKW-NH2; N-terminus assumed)
- Minimal inhibitory concentration MIC [1]: 32 mg/L (≈ 13.7 µM)
- Minimal inhibitory concentration MIC [2]: >128 mg/L
- Minimal inhibitory concentration MIC [3]: >128 mg/L
- Antibiotic MIC, Erythromycin [4, 12]: 64 mg/L
- Antibiotic MIC, Linezolid [4, 12]: >128 mg/L
- Antibiotic MIC, Vancomycin [4, 12]: >128 mg/L
- Antibiotic MIC, Erythromycin [4, 13]: 32 mg/L
- Antibiotic MIC, Linezolid [4, 13]: 64 mg/L
- Antibiotic MIC, Vancomycin [4, 13]: >128 mg/L
- Antibiotic MIC, Erythromycin [4, 14]: 16 mg/L
- Antibiotic MIC, Linezolid [4, 14]: 32 mg/L
- Antibiotic MIC, Vancomycin [4, 14]: 128 mg/L
- Antibiotic MIC, Erythromycin [4, 15]: 8 mg/L
- Antibiotic MIC, Linezolid [4, 15]: 32 mg/L
- Antibiotic MIC, Vancomycin [4, 15]: 128 mg/L
- Antibiotic MIC, Erythromycin [4, 16]: 2 mg/L
- Antibiotic MIC, Linezolid [4, 16]: 16 mg/L
- Antibiotic MIC, Vancomycin [4, 16]: 64 mg/L
- Antibiotic MIC, Erythromycin [4, 17]: 0.5 mg/L
- Antibiotic MIC, Linezolid [4, 17]: 8 mg/L
- Antibiotic MIC, Vancomycin [4, 17]: 16 mg/L
- Antibiotic MIC, Erythromycin [4, 18]: 0.125 mg/L
- Antibiotic MIC, Linezolid [4, 18]: 4 mg/L
- Antibiotic MIC, Vancomycin [4, 18]: 8 mg/L
- Antibiotic MIC, Erythromycin [4, 19]: 0 mg/L
- Antibiotic MIC, Linezolid [4, 19]: 0 mg/L
- Antibiotic MIC, Vancomycin [4, 19]: 0 mg/L
- Antibacterial activity (in words) [5]: comparable to papiliocin or melittin
- Minimal inhibitory concentration MIC [6]: 16 mg/L (≈ 6.83 µM)
- Minimal inhibitory concentration MIC [7]: 16 mg/L (≈ 6.83 µM)
- Minimal inhibitory concentration MIC [8]: 32 mg/L (≈ 13.7 µM)
- Minimal inhibitory concentration MIC [9]: 16 mg/L (≈ 6.83 µM)
- Minimal inhibitory concentration MIC [10]: 64 mg/L (≈ 27.3 µM)
- Erythromycin MIC during combined treatment with peptide [11, 12]: 32 mg/L
- Linezolid MIC during combined treatment with peptide [11, 12]: >128 mg/L
- Vancomycin MIC during combined treatment with peptide [11, 12]: >128 mg/L
- Erythromycin MIC during combined treatment with peptide [11, 13]: 16 mg/L
- Linezolid MIC during combined treatment with peptide [11, 13]: 64 mg/L
- Vancomycin MIC during combined treatment with peptide [11, 13]: >128 mg/L
- Erythromycin MIC during combined treatment with peptide [11, 14]: 4 mg/L
- Linezolid MIC during combined treatment with peptide [11, 14]: 32 mg/L
- Vancomycin MIC during combined treatment with peptide [11, 14]: 128 mg/L
- Erythromycin MIC during combined treatment with peptide [11, 15]: 2 mg/L
- Linezolid MIC during combined treatment with peptide [11, 15]: 32 mg/L
- Vancomycin MIC during combined treatment with peptide [11, 15]: 32 mg/L
- Erythromycin MIC during combined treatment with peptide [11, 16]: 0.25 mg/L
- Linezolid MIC during combined treatment with peptide [11, 16]: 8 mg/L
- Vancomycin MIC during combined treatment with peptide [11, 16]: 16 mg/L
- Erythromycin MIC during combined treatment with peptide [11, 17]: 0 mg/L
- Linezolid MIC during combined treatment with peptide [11, 17]: 0 mg/L
- Vancomycin MIC during combined treatment with peptide [11, 17]: 0 mg/L
- Erythromycin MIC during combined treatment with peptide [11, 18]: 0 mg/L
- Linezolid MIC during combined treatment with peptide [11, 18]: 0 mg/L
- Vancomycin MIC during combined treatment with peptide [11, 18]: 0 mg/L
- Erythromycin MIC during combined treatment with peptide [11, 19]: 0 mg/L
- Linezolid MIC during combined treatment with peptide [11, 19]: 0 mg/L
- Vancomycin MIC during combined treatment with peptide [11, 19]: 0 mg/L

— patent US11214594B2, “Antimicrobial peptide having synergistic antibacterial effect with antibiotics on multidrug resistant bacteria, and use thereof” (priority 2016, dated 2022)
